Target: recombinant human (rh)ACE2 (Homo sapiens, UniProt Q9BYF1)
Assay: fluorogenic exopeptidase assay
Type: biochemical

recombinant human (rh)ACE2, sequence (Q9BYF1 18-740 limits assumed): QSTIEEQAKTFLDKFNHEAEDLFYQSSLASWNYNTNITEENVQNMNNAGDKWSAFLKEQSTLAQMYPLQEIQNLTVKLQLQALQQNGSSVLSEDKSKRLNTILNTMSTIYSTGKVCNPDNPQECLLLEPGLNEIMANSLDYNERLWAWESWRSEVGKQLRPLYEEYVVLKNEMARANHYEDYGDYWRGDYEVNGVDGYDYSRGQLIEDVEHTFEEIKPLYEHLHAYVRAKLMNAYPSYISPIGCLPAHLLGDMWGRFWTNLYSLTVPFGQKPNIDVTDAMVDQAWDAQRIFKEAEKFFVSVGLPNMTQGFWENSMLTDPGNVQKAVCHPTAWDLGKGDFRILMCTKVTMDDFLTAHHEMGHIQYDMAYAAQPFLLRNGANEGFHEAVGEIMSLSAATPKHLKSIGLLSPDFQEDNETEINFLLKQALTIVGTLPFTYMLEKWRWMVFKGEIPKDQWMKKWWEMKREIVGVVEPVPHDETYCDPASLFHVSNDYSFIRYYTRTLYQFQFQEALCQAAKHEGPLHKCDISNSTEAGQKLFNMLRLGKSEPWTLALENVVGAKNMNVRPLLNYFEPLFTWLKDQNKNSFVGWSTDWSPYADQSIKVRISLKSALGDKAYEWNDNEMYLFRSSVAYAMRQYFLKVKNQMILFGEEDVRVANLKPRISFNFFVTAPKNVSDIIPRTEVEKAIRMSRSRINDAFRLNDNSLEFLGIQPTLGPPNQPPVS

Compound | IC50
CC(C)C[C@H](N[C@@H](Cc1cncn1Cc1cc(Cl)cc(Cl)c1)C(=O)O)C(=O)O [MLN-4760] | 29.7 nM
CC(C)C[C@H](N[C@@H](Cc1cncn1Cc1ccc(N)cc1)C(=O)O)C(=O)O [compound 1, (S)-2-(((S)-2-(1-(4-aminobenzyl)-1H-imidazol-5-yl)-1-carboxyethyl)amino)-4-methylpentanoic acid] | 11.3 nM

Source: PMC8755562 (European Journal of Medicinal Chemistry, 2022)
